These results are taken from patent US4465676A, “16α Halogen substituted 3,17β-dihydroxy steroidal estrogens” (priority 1980, dated 1984).

Structures are written as SMILES.

The target of data set [1] is T1, calf uterine estrogen receptor (Bos taurus, UniProt P49884).
T1 construct: Fresh calf uteri obtained from a slaughterhouse; from tissue; host or cells: calf uterus, 150,000 x g cytosol from lyophilized powder
T1 sequence (P49884 1-596): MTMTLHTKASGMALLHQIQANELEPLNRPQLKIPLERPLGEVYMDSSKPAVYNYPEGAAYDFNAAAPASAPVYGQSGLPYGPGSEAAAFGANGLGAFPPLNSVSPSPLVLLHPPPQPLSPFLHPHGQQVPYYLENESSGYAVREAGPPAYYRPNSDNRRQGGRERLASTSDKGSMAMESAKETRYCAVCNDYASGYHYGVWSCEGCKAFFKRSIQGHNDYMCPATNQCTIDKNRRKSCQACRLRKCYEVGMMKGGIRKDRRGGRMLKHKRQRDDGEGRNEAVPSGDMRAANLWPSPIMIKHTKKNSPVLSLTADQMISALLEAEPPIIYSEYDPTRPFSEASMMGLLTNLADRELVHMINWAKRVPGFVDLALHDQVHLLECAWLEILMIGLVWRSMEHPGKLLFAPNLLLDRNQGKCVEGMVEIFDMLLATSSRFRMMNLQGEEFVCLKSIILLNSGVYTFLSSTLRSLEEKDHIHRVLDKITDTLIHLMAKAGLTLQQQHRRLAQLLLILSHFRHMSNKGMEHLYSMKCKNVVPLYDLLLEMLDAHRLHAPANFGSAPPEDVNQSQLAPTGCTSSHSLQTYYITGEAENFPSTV
In words: Saturation and Scatchard analysis of the estrogen receptor from calf uterus. Conditions: calf uterine cytosol. Type of data set: binding. As for the experimental part: Fresh calf uteri obtained from a slaughterhouse were brought to the laboratory on ice, immediately trimmed of fat, and cut into small pieces; the pieces were frozen in liquid nitrogen and pulverized. The pulverized frozen tissue was lyophilized, and the desiccated powder was stored under vacuum in sealed vials at -80° C. The uterine powders were usually used within 1 month of pulverization. When needed, the powders were suspended in 0.1M Tris-HCl, pH 7.4/2.5 mM EDTA/5 mM dithiotreithol (TED buffer) at 2.5 mg/ml and homogenized at 0° C. in a Polytron homogenizer with two or three pulses at 15 seconds each. The homogenate was then centrifuged at 150,000×g for 60 minutes and the resulting supernatant (cytosol), containing approximately 1 mg of protein per ml, was used for binding studies on the estrogen receptor.
After the solvent was removed under a stream of N2, 250 μl of cytosol was added and the samples were incubated at 0°-2° C. overnight. The following morning, 250 μl of a 0.5% suspension of dextran-coated charcoal in TED buffer was added to the tubes which then were mixed and centrifuged at 5000×g for 10 minutes. The supernatant was assayed to determine bound radioactivity.
A saturation analysis of the estrogen receptor from calf uterus was conducted. […] Nonspecific binding, specific binding and total binding were determined in parallel incubations containing 0.7 μM DES.
A Scatchard analysis of the estrogen receptor from calf uterus was also conducted.

The test system of data set [2] is testosterone-estradiol binding globulin. In words: Binding to testosterone-estradiol binding globulin of human plasma. From the text: This protein contaminates most human tissue preparations, complicating the detection of sex steroid receptors.
Data set [3] in a line: Stability of the radiolabelled compound on storage. It counts as physicochemical. As for the experimental part:
In several experiments the yield of ^125 I-labeled estradiol ranged from 25 to 65 percent of the incubated ^125 I. The purified radioactive iodinated compound was stored at 0° to 4° C. in a benzene-methanol mixture (95:5).

For `C[C@]12CC[C@@H]3c4ccc(O)cc4CC[C@H]3[C@@H]1C[C@@H]([125I])[C@@H]2O` [^125 I-E2, 16α-[^125 I]iodoestra-1,3,5(10)-triene-3,17β-diol], the “radioactivity bound (binding capacities)” value in data set [1] is 122,000 cpm. For the same compound, the “binding to testosterone-estradiol binding globulin” value in data set [2] is “does not bind”. Further, the values for the decomposition on storage result in data set [3] (weeks of storage at 0° to 4° C. in benzene-methanol (95:5)) and in data set [3] (weeks of storage of 4° C.) were “no signs of decomposition” and “little sign of decomposition”, respectively.
